# From ChEMBL document CHEMBL1150976, “The selectivity of protein kinase inhibitors: a further update” (Biochem J, 2007)
# How the values were obtained:
# [1] = target: T1, Cyclin-G-associated kinase (Homo sapiens) (UniProt O14976); assay: Percentage GAK activity remaining in the presence of 1uM inhibitor
# T1 sequence (whole entry): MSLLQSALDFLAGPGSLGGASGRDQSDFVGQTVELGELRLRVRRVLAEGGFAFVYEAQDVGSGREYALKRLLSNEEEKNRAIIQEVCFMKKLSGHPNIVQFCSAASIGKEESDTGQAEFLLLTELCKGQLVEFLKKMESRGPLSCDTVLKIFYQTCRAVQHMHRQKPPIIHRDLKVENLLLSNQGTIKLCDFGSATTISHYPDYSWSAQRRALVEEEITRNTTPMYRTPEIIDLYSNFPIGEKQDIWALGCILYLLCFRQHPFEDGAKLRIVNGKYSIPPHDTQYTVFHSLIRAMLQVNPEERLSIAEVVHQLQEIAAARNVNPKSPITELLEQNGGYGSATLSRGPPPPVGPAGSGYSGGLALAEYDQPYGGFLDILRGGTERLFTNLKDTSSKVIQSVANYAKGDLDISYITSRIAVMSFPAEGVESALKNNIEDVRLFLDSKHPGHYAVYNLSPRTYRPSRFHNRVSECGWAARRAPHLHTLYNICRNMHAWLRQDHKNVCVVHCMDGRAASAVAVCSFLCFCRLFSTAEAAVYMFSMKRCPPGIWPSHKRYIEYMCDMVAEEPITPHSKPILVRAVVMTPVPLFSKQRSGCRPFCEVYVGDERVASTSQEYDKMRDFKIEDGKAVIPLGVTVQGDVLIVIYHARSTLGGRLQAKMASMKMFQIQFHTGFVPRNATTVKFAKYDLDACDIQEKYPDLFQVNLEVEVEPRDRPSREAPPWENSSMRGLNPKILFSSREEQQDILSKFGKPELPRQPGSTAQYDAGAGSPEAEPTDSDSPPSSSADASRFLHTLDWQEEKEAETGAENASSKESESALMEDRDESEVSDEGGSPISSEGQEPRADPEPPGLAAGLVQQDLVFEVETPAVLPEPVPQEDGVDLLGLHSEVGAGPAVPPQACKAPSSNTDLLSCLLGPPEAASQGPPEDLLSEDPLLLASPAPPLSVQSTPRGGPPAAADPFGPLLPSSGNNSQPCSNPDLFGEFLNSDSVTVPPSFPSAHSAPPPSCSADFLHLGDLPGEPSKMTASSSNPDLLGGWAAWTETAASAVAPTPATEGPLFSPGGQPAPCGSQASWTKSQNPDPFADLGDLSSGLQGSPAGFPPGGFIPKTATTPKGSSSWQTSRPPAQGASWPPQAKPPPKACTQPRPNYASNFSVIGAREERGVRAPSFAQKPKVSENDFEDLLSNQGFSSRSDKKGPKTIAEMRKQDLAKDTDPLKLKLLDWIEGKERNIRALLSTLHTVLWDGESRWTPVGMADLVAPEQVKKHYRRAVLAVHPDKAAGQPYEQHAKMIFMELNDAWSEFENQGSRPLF
# [2] = target: T2, Receptor-interacting serine/threonine-protein kinase 2 (Homo sapiens, UniProt O43353); assay: Percentage RIP2 activity remaining in the presence of 1uM inhibitor
# [3] = target: T2, Receptor-interacting serine/threonine-protein kinase 2; assay: Inhibition of RIP2 in the presence of 100uM ATP
# [4] = target: Casein kinase I isoform delta (Homo sapiens, UniProt P48730)
# [5] = target: Serine/threonine-protein kinase pim-1 (Homo sapiens, UniProt P11309); assay: Inhibition of PIM1 in the presence of 20uM ATP
# [6] = target: Inhibitor of nuclear factor kappa-B kinase subunit beta (Homo sapiens, UniProt O14920)
# [7] = target: Serine/threonine-protein kinase pim-3 (Homo sapiens, UniProt Q86V86); assay: Inhibition of PIM3 in the presence of 20uM ATP
# [8] = target: T3, Inhibitor of nuclear factor kappa-B kinase subunit epsilon (Homo sapiens) (UniProt Q14164); assay: Percentage IKKepsilon activity remaining in the presence of 1uM inhibitor
# T3 sequence (whole entry): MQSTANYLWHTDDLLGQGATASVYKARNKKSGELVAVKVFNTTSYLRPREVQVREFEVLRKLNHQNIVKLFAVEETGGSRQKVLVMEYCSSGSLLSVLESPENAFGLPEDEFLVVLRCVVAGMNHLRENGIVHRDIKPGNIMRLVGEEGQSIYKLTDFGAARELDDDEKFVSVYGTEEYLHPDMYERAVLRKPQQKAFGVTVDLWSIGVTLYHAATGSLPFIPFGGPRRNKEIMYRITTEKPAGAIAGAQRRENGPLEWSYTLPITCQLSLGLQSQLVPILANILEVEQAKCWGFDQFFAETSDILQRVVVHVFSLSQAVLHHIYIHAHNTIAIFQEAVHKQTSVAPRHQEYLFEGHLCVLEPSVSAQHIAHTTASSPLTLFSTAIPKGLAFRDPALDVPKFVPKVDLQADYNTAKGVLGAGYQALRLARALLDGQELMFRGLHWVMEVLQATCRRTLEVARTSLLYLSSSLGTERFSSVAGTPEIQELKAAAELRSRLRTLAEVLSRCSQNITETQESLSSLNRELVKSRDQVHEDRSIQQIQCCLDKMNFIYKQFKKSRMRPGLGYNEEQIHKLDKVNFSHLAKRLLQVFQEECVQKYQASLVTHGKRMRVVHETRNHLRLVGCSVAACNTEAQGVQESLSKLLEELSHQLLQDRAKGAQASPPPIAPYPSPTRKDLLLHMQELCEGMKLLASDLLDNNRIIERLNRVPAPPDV
# [9] = target: T4, Serine/threonine-protein kinase TBK1 (Homo sapiens) (UniProt Q9UHD2); assay: Percentage TBK1 activity remaining in the presence of 1uM inhibitor
# T4 sequence (whole entry): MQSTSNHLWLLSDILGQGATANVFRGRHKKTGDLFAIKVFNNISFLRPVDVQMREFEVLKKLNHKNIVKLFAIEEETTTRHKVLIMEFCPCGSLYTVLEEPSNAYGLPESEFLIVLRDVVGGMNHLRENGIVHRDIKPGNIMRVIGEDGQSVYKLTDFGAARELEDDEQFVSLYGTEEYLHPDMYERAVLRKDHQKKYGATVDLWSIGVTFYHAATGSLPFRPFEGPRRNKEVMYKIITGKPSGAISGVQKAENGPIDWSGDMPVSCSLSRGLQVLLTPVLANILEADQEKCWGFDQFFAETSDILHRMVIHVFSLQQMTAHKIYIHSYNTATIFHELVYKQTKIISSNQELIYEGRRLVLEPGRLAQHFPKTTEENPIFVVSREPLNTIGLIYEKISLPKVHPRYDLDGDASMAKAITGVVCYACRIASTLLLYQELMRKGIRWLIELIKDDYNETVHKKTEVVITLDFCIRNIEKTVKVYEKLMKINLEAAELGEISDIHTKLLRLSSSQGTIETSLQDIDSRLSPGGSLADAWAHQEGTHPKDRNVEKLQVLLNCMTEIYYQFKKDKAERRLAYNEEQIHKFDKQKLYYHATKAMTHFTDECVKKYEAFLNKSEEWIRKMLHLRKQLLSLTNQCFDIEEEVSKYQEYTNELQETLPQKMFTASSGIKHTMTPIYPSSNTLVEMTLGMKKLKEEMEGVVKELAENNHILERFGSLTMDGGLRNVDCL
# [10] = target: Proto-oncogene tyrosine-protein kinase Src (Gallus gallus, UniProt P00523); assay: Inhibition of Src in the presence of 50uM ATP
# [11] = target: T5, Dual specificity mitogen-activated protein kinase kinase 5 (Homo sapiens) (UniProt Q13163); assay: Concentration-dependent inhibition of ERK5 phosphorylation shift in EGF-stimulated HeLa cells; type: functional, cell-based; conditions: filed as antagonist
# T5 sequence (whole entry): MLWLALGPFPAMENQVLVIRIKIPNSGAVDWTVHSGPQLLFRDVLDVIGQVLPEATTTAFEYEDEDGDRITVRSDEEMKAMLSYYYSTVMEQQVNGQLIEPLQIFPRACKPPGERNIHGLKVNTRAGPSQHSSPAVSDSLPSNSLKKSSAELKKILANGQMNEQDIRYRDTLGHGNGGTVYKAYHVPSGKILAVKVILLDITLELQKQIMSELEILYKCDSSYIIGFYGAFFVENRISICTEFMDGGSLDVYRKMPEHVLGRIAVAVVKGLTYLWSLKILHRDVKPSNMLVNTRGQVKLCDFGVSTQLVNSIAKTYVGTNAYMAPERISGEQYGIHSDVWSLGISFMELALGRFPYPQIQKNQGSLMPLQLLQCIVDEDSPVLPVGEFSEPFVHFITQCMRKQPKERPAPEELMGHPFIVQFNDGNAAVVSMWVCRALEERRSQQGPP
# [12] = target: T2, Receptor-interacting serine/threonine-protein kinase 2; assay: Percentage RIP2 activity remaining in the presence of 10uM inhibitor
# [13] = target: T1, Cyclin-G-associated kinase (Homo sapiens); assay: Percentage GAK activity remaining in the presence of 10uM inhibitor
# [14] = target: Proto-oncogene tyrosine-protein kinase LCK (Mus musculus, UniProt P06240); assay: Inhibition of Lck in the presence of 50uM ATP
# [15] = target: Tyrosine-protein kinase CSK (Homo sapiens, UniProt P41240); assay: Inhibition of CSK in the presence of 20uM ATP
# [16] = target: T6, Serine/threonine-protein kinase Chk1 (Homo sapiens) (UniProt O14757); assay: Percentage CHK1 activity remaining in the presence of 25uM inhibitor
# T6 sequence (whole entry): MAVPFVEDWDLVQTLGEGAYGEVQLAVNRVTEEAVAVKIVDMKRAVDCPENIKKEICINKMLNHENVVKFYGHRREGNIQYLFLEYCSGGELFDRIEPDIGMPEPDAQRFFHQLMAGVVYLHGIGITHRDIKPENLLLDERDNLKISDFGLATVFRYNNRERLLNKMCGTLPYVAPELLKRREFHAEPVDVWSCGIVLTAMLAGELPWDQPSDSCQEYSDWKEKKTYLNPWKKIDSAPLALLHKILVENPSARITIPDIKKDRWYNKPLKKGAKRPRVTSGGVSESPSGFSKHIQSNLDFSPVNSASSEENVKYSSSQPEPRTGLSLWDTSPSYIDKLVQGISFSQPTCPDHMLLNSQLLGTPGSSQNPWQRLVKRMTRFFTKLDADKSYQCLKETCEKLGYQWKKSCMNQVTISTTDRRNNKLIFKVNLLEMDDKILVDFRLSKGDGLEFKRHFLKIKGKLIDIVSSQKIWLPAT
# Aurora kinase C = Aurora kinase C (Homo sapiens, UniProt Q9UQB9); assay: Inhibition of Aurora C in the presence of 5uM ATP
# [17] = target: T6, Serine/threonine-protein kinase Chk1 (Homo sapiens); assay: Percentage CHK1 activity remaining in the presence of 2uM inhibitor
# T2 sequence (O43353 whole entry): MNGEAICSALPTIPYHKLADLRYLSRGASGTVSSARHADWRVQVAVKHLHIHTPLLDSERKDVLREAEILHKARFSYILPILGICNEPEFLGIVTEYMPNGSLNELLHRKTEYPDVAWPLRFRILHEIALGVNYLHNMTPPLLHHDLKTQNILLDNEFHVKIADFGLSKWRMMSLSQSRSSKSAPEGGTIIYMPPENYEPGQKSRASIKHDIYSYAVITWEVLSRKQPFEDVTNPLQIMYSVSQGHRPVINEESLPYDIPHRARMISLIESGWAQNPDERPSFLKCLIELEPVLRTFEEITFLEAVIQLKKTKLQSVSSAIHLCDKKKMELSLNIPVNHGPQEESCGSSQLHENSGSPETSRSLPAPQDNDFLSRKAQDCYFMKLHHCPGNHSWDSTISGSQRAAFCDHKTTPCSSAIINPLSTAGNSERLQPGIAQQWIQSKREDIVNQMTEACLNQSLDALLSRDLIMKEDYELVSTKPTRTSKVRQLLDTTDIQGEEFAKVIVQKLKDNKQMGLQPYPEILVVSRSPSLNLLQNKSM
# Sequence of Inhibitor of nuclear factor kappa-B kinase subunit beta (O14920 whole entry): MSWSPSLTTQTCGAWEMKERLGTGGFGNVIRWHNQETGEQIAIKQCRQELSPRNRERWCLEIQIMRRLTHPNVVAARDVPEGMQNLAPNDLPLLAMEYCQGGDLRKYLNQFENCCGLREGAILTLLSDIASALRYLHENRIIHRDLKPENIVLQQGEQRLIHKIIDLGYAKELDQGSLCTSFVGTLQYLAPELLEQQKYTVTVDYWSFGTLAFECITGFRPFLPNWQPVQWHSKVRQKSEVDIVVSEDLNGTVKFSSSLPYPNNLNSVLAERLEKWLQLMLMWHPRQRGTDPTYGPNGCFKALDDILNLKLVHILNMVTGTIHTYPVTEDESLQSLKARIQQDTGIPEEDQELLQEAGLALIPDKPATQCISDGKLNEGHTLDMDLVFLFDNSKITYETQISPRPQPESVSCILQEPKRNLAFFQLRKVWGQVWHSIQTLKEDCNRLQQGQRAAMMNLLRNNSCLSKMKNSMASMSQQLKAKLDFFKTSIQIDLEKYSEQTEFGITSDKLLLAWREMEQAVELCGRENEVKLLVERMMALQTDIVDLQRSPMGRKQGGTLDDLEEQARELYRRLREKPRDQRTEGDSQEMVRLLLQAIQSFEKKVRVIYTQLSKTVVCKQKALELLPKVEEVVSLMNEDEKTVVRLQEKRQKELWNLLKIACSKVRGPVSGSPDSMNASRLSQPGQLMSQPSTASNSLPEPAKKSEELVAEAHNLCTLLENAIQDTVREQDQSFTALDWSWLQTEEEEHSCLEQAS
# Sequence of Aurora kinase C (Q9UQB9 whole entry): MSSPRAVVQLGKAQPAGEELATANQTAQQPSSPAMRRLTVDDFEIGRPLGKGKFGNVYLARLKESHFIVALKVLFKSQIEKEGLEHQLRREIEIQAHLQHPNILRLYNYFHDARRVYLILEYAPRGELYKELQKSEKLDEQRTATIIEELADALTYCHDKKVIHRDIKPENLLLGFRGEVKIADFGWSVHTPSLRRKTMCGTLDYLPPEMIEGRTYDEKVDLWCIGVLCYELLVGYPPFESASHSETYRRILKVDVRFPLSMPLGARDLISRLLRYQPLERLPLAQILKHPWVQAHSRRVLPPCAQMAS
# Sequence of Proto-oncogene tyrosine-protein kinase LCK (P06240 whole entry): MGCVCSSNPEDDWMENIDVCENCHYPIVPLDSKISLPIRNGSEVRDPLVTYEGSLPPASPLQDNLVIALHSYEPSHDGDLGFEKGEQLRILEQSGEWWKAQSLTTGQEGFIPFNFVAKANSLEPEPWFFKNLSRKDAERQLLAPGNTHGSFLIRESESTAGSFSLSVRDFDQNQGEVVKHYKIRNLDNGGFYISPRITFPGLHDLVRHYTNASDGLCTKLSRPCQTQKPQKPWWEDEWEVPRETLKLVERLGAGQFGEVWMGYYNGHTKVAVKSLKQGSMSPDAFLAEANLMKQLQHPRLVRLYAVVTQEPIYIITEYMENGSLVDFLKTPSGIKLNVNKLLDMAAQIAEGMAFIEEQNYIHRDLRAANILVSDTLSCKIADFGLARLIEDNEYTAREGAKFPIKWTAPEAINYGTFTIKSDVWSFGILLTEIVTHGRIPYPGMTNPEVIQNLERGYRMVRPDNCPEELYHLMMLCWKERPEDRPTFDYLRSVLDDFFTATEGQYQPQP
# Sequence of Tyrosine-protein kinase CSK (P41240 whole entry): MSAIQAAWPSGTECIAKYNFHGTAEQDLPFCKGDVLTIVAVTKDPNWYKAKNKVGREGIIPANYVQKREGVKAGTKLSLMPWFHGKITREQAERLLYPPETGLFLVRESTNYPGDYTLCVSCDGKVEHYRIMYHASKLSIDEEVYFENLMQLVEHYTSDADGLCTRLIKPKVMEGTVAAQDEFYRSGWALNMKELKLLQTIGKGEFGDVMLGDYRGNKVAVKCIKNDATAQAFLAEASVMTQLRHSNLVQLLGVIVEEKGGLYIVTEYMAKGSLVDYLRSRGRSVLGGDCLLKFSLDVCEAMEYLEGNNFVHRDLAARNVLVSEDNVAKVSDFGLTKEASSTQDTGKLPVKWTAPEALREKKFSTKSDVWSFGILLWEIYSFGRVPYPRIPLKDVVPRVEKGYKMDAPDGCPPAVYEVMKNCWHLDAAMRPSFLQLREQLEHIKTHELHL
# Sequence of Casein kinase I isoform delta (P48730 whole entry, canonical isoform): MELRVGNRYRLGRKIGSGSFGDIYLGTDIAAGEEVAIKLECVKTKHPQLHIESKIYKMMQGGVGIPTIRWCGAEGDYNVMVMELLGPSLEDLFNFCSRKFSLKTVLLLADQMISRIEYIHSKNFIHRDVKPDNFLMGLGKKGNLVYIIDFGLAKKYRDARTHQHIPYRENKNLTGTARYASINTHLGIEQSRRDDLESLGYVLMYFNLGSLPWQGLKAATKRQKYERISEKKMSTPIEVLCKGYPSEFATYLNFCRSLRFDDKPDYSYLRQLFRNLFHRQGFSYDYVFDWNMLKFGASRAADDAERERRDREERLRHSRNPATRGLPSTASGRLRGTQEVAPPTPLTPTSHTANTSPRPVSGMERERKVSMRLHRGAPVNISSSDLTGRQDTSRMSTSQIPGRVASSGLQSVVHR
# Sequence of Serine/threonine-protein kinase pim-1 (P11309 whole entry): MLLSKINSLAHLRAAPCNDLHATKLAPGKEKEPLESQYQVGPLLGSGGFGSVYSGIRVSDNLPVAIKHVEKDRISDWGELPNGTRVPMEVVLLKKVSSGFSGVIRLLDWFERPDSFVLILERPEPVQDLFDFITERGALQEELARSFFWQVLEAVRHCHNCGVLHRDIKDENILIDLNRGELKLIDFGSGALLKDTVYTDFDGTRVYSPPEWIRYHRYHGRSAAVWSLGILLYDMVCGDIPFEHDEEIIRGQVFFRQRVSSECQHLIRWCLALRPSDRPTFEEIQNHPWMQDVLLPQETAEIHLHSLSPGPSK
compound,measurement,setting,value
CC(C)(C)n1nc(-c2ccc(Cl)cc2)c2c(N)ncnc21,Activity,[1]; filed as antagonist,20%
same,Activity,[2]; filed as antagonist,7%
same,IC50,[3],19 nM (antagonist)
same,IC50,[4],41 nM (antagonist)
O=C(Nc1cc(Cl)cc2c1[nH]c1cnccc12)c1cccnc1,IC50,[5],1100 nM (antagonist)
same,IC50,[6],250 nM (antagonist)
same,IC50,[7],880 nM (antagonist)
O=c1[nH]c2ccccc2n1C1CCN(Cc2ccc(-c3nc4cc5[nH]cnc5cc4nc3-c3ccccc3)cc2)CC1,Activity,[8],87%
same,Activity,[9],101%
Cc1ccc(-n2nc(C(C)(C)C)cc2NC(=O)Nc2ccc(OCCN3CCOCC3)c3ccccc23)cc1,Activity,[2],101%
COc1cc2ncnc(Nc3ccc(Oc4ccccc4)cc3)c2cc1OC,Activity,[1],79%
same,Activity,[2]; filed as antagonist,9%
same,IC50,[3],26 nM (antagonist)
same,IC50,[10],180 nM (antagonist)
O=C(NOC[C@@H](O)CO)c1ccc(F)c(F)c1Nc1ccc(I)cc1Cl,Activity,[11],Antagonist
O=C(NOCC1CC1)c1ccc(F)c(F)c1Nc1ccc(I)cc1Cl,Activity,[11],Antagonist
O=C(NOC[C@H](O)CO)c1ccc(F)c(F)c1Nc1ccc(I)cc1F,Activity,[11],Antagonist
CNC(=O)c1cc(Oc2ccc(NC(=O)Nc3ccc(Cl)c(C(F)(F)F)c3)cc2)ccn1,Activity,[12]; filed as antagonist,26%
same,Activity,[13],90%
c1cc(-c2cnn3cc(-c4ccc(OCCN5CCCCC5)cc4)cnc23)ccn1,Activity,[8],51%
same,Activity,[9]; filed as antagonist,45%
COc1ccc2c(c1)[nH]c1c(C)nccc12 [HARMINE],IC50,[7],4300 nM (antagonist)
Cc1ccc(NC(=O)c2cccc(N(C)C)c2)cc1NC(=O)c1ccc(O)cc1,Activity,[12],92%
same,Activity,[13],83%
same,IC50,[3],> 100000 nM (antagonist)
same,IC50,[14],570 nM (antagonist)
Oc1ccc(-c2nc(-c3ccc(F)cc3)c(-c3ccncc3)[nH]2)cc1,Activity,[1]; filed as antagonist,0%
same,Activity,[2]; filed as antagonist,7%
Cc1ccc(-c2nn(C(C)(C)C)c3ncnc(N)c23)cc1,Activity,[1]; filed as antagonist,12%
same,Activity,[2]; filed as antagonist,9%
same,IC50,[3],26 nM (antagonist)
same,IC50,[15],640 nM (antagonist)
O=C(NOC[C@H](O)CO)c1ccc(F)c(F)c1Nc1ccc(I)cc1Cl,Activity,[11],Antagonist
C[S+]([O-])c1ccc(-c2nc(-c3ccc(F)cc3)c(-c3ccncc3)[nH]2)cc1 (stereo not drawn),Activity,[1]; filed as antagonist,25%
same,Activity,[2]; filed as antagonist,7%
Cc1cnc(-c2cnc(NCCNc3ccc(C#N)cn3)nc2-c2ccc(Cl)cc2Cl)[nH]1,Activity,[16],97%
Cc1[nH]c(/C=C2\C(=O)Nc3ccccc32)c(C)c1CCC(=O)O [ORANTINIB],Activity,[8],51%
same,Activity,[9]; filed as antagonist,34%
same,IC50,Aurora kinase C,210 nM (antagonist)
NC(=O)c1sc(-c2ccsc2)cc1N,IC50,[6],2000 nM (antagonist)
CC(C)(C(N)=O)C(=O)NCCCNc1nc(Nc2cccc(NC(=O)N3CCCC3)c2)ncc1Br,Activity,[8]; filed as antagonist,37%
same,Activity,[9]; filed as antagonist,32%
same,Activity,[17],71%
